From patent publication US4692517A, “C-3' acylaminooxy-7-[(2-aminothiazol-4-yl)-α-(substituted-oximino)acety l]cephalosporin derivatives” (American Home Products Corporation, priority 1986, dated 1987)
Values after ≈ are worked out from the molar mass of the structure shown.

Columns and labels:
Format in all cases: cell-based
[1] = system: Staphylococcus aureus ATCC 29213; experiment: Agar dilution MIC, Staphylococcus aureus ATCC 29213; settings: ATCC29213, 18 hours at 35° C., read-out: Minimal Inhibitory Concentration (MIC)
Protocol: (§1) The compounds of the invention are tested for their antibacterial activity. The test is carried out as follows:
(§2) The organisms used in the test comprise the following:
(§3) Staphylococcus aureus (penicillin-sensitive and resistant), Pseudomonas aeruginosa, Escherichia coli, […] pneumoniae, Bordetella bronchiseptica, Proteus vulgaris, P. mirabilis, Acinetobacter calcoaceticus.
(§4) Test organisms may be added or deleted in order to reflect current clinical patterns of antibiotic susceptibility or shifts in pathogenic potential.
(§5) Organisms are normally grown for 18 hours in Brain Heart Infusion at 35° C. Cultures are adjusted with saline to MacFarland No. 1.5 standard prior to use.
(§6) Stock concentrations (e.g. 2,500 μg or units per ml) are prepared in a suitable vehicle. Two-fold dilutions are made. One ml quantities of each dilution are incorporated in 9 ml of the appropriate agar (e.g. Seed) in sterile Petri plates. The hardened surface is inoculated with test organisms by use of a Steers replicating device. The plates are incubated (e.g. 18 hours at 35° C.) and activity is determined.

[2] = system: Streptococcus faecalis ATCC 29212; experiment: Agar dilution MIC, Streptococcus faecalis ATCC 29212; settings: Enterococcus faecalis, ATCC29212, 18 hours at 35° C., read-out: Minimal Inhibitory Concentration (MIC)
Protocol: as §1, §2, §3, §4, §5, §6

[3] = system: Enterobacter cloacae ATCC 13047; experiment: Agar dilution MIC, Enterobacter cloacae ATCC 13047; settings: ATCC13047, 18 hours at 35° C., read-out: Minimal Inhibitory Concentration (MIC)
Protocol: as §1, §2, §3, §4, §5, §6

[4] = system: Escherichia coli ATCC 25922; experiment: Agar dilution MIC, Escherichia coli ATCC 25922; settings: ATCC25922, 18 hours at 35° C., read-out: Minimal Inhibitory Concentration (MIC)
Protocol: as §1, §2, §3, §4, §5, §6

[5] = system: Klebsiella pneunomiae KL-1; experiment: Agar dilution MIC, Klebsiella pneunomiae KL-1; settings: KL1, 18 hours at 35° C., read-out: Minimal Inhibitory Concentration (MIC)
Protocol: as §1, §2, §3, §4, §5, §6

[6] = system: Proteus vulgaris A 84354 1; experiment: Agar dilution MIC, Proteus vulgaris A 84354 1; settings: A843541, 18 hours at 35° C., read-out: Minimal Inhibitory Concentration (MIC)
Protocol: as §1, §2, §3, §4, §5, §6

[7] = system: Pseudomonas aeruginosa ATCC 27853; experiment: Agar dilution MIC, Pseudomonas aeruginosa ATCC 27853; settings: ATCC27853, 18 hours at 35° C., read-out: Minimal Inhibitory Concentration (MIC)
Protocol: as §1, §2, §3, §4, §5, §6

[8] = system: Serratia marcescens ATCC 13880; experiment: Agar dilution MIC, Serratia marcescens ATCC 13880; settings: ATCC13880, 18 hours at 35° C., read-out: Minimal Inhibitory Concentration (MIC)
Protocol: as §1, §2, §3, §4, §5, §6

## CO/N=C(\C(=O)N[C@@H]1C(=O)N2C(C(=O)OC(C)(C)C)=C(CONC(=O)OC(C)(C)C)CS[C@H]12)c1csc(N)n1 [Example 1B, (6R,7R)-7-[[(Z)-(2-amino-4-thiazolyl)(methoxyimino)acetyl]amino]-3-[[[[(1,1-dimethylethoxy)carbonyl]amino]oxy]methyl]-8-oxo-5-thia-1-azabicyclo[4.2.0]oct-2-ene-2-carboxylic acid 1,1-dimethylethyl ester]
[1]
  MIC: 64 µg/mL (≈ 109 µM)
[2]
  MIC: 128 µg/mL (≈ 219 µM)
[3]
  MIC: 32 µg/mL (≈ 54.7 µM)
[4]
  MIC: 4 µg/mL (≈ 6.84 µM)
[5]
  MIC: 1 µg/mL (≈ 1.71 µM)
[6]
  MIC: 1 µg/mL (≈ 1.71 µM)
[7]
  MIC: 128 µg/mL (≈ 219 µM)
[8]
  MIC: 16 µg/mL (≈ 27.4 µM)
